Results: patent publication US20140378416A1, “SILYL-CONTAINING HETEROCYCLIC COMPOUNDS AND METHODS OF USE THEREOF FOR THE TREATMENT OF VIRAL DISEASES” (priority 2011, published 2014)
Read-outs that look alike come from different tables or passages of the source.

Legend:
HCV replicon 2b = experiment: Cell-based HCV replicon assay (TaqMan), genotype 2b replicon; conditions: EC90 = concentration for ΔCT=3.2 over baseline
Description: (§1) Measurement of inhibition by compounds of the present invention was performed using the HCV replicon system. Several different replicons encoding different HCV genotypes or mutations were used. In addition, potency measurements were made using different formats of the replicon assay, including different ways of measurements and different plating formats. See Jan M. Vrolijk et al., A replicons-based bioassay for the measurement of interferons in patients with chronic hepatitis C, 110 J. VIROLOGICAL METHODS 201 (2003); Steven S. Carroll et al., Inhibition of Hepatitis C Virus RNA Replication by 2′-Modified Nucleoside Analogs, 278(14) J. BIOLOGICAL CHEMISTRY 11979 (2003). However, the underlying principles are common to all of these determinations, and are outlined below.
(§2) Compounds of the present invention were assayed for cell-based anti-HCV activity using the following protocol. Replicon cells were seeded at 5000 cells/well in 96-well collagen I-coated Nunc plates in the presence of the test compound. Various concentrations of test compound, typically in 10 serial 2-fold dilutions, were added to the assay mixture, with the starting concentration ranging from 250 μM to 1 μM. The final concentration of DMSO was 0.5%, fetal bovine serum was 5%, in the assay media. Cells were harvested on day 3 by the addition of 1× cell lysis buffer (Ambion cat #8721). The replicon RNA level was measured using real time PCR (TaqMan® assay). The amplicon was located in 5B. The PCR primers were: 5B.2F, ATGGACAGGCGCCCTGA (SEQ. ID NO. 1); 5B.2R, […] (SEQ. ID NO. 2); the probe sequence was FAM-labeled CACGCCATGCGCTGCGG (SEQ. ID NO. 3). GAPDH RNA was used as endogenous control and was amplified in the same reaction as NS5B (multiplex PCR) using primers and VIC-labeled probe recommended by the manufacturer (PE Applied Biosystem). The real-time […] reactions were run on ABI PRISM 7900HT Sequence Detection System using the following program: 48° C. for 30 minutes, 95° C. for 10 minutes, 40 cycles of 95° C. for 15 sec, 60° C. for 1 minute. The ACT values (CT5B-CTGAPDH) were plotted against the concentration of test compound and fitted to the sigmoid dose-response model using XLfit4 (MDL). EC50 was defined as the concentration of inhibitor necessary to achieve ΔCT=1 over the projected baseline; EC90 the concentration necessary to achieve ΔCT=3.2 over the baseline. Alternatively, to quantitate the absolute amount of replicon RNA, a standard curve was established by including serially diluted T7 transcripts of replicon RNA in the Taqman assay. All TaqMan® reagents were from PE Applied Biosystems. Such an assay procedure was described in detail in e.g. Malcolm et al., Antimicrobial Agents and Chemotherapy 50: 1013-1020 (2006).
(§3) HCV replicon EC50 assay data for various replicons and mutants was calculated for selected compounds of the present invention using this method and is provided in the tables above herein.

HCV replicon 1a = experiment: Cell-based HCV replicon assay (TaqMan), genotype 1a replicon; conditions: HCV 1a replicon cells, replicon RNA by TaqMan on day 3, EC90 = concentration for ΔCT=3.2 over baseline
Description: as §1, §2, §3

HCV replicon 1a Y93H = experiment: Cell-based HCV replicon assay (TaqMan), genotype 1a Y93H mutant replicon; conditions: EC90 = concentration for ΔCT=3.2 over baseline
Description: as §1, §2, §3

HCV replicon 1b = experiment: Cell-based HCV replicon assay (TaqMan), genotype 1b replicon; conditions: HCV 1b replicon cells, replicon RNA by TaqMan on day 3, EC90 = concentration for ΔCT=3.2 over baseline
Description: as §1, §2, §3

[1] = Hepatitis C virus, 72 h, read-out: 2b EC90, HCV 2b replicon cells, replicon RNA by TaqMan on day 3
[2] = Hepatitis C virus, 72 h, read-out: 1a Y93H EC90, HCV 1a Y93H mutant replicon cells, replicon RNA by TaqMan on day 3

Compound	EC90 (HCV replicon 2b; [1]) [nM]	EC90 (HCV replicon 1a; Hepatitis C virus, 72 h) [nM]	EC90 (HCV replicon 1a Y93H; [2]) [nM]	EC90 (HCV replicon 1b; Hepatitis C virus, 72 h) [nM]	EC90 (HCV replicon 2b; read-out: 2b EC90, HCV 2b replicon cells, replicon RNA by TaqMan on day 3) [nM]	EC90 (HCV replicon 1a) [nM]	EC90 (HCV replicon 1a Y93H; read-out: 1a Y93H EC90, HCV 1a Y93H mutant replicon cells, replicon RNA by TaqMan on day 3) [nM]	EC90 (HCV replicon 1b) [nM]
COC(=O)N[C@@H](C(=O)N1CCC[C@@H]1c1ncc(-c2ccc(-c3ccc(-c4cnc([C@H]5C[Si](C)(C)CN5C(=O)[C@H](NC(=O)OC)C5CCCOCC5)[nH]4)cc3)cc2)[nH]1)C1CCCOCC1 (some centres unmarked) [Compound 21]	204	4.42	1000	18.7	–	–	–	–
COC(=O)N[C@H](C(=O)N1CCC[C@@H]1c1ncc(-c2ccc(-c3ccc(-c4cnc([C@H]5C[Si](C)(C)CN5C(=O)[C@@H](NC(=O)OC)C5CC5)[nH]4)cc3)cc2)[nH]1)C1CC1 [Compound 22]	1000	1000	1000	1000	–	–	–	–
COC(=O)N[C@H](C(=O)N1CCC[C@H]1c1ncc(-c2ccc(-c3ccc(-c4cnc([C@@H]5C[Si](C)(C)CN5C(=O)[C@@H](NC(=O)OC)C5CCCC5)[nH]4)cc3)cc2)[nH]1)C1CCCC1 [Compound 24]	382	2.91	1000	17.3	–	–	–	–
COC(=O)N[C@H](C(=O)N1CCC[C@H]1c1ncc(-c2ccc(-c3ccc(-c4cnc([C@@H]5C[Si](C)(C)CN5C(=O)[C@@H](NC(=O)OC)[C@@H](C)OC)[nH]4)cc3)cc2)[nH]1)[C@@H](C)OC [Compound 25]	136	0.72	1000	4.77	–	–	–	–
COC(=O)N[C@@H](Cc1cccc(O)c1)C(=O)N1CCC[C@H]1c1ncc(-c2ccc(-c3ccc(-c4cnc([C@@H]5C[Si](C)(C)CN5C(=O)[C@H](Cc5cccc(O)c5)NC(=O)OC)[nH]4)cc3)cc2)[nH]1 [Compound 26]	1000	11.5	1000	387	–	–	–	–
COC(=O)N[C@@H](Cn1ncnn1)C(=O)N1CCC[C@H]1c1ncc(-c2ccc(-c3ccc(-c4cnc([C@@H]5C[Si](C)(C)CN5C(=O)[C@H](Cn5ncnn5)NC(=O)OC)[nH]4)cc3)cc2)[nH]1 [Compound 27]	138	6.11	1000	2.17	–	–	–	–
COC(=O)N[C@@H](Cc1cn(C)cn1)C(=O)N1CCC[C@H]1c1ncc(-c2ccc(-c3ccc(-c4cnc([C@@H]5C[Si](C)(C)CN5C(=O)[C@H](Cc5cn(C)cn5)NC(=O)OC)[nH]4)cc3)cc2)[nH]1 [Compound 28]	1000	11.9	1000	282	–	–	–	–
COC(=O)N[C@@H](Cn1cccn1)C(=O)N1CCC[C@H]1c1ncc(-c2ccc(-c3ccc(-c4cnc([C@@H]5C[Si](C)(C)CN5C(=O)[C@H](Cn5cccn5)NC(=O)OC)[nH]4)cc3)cc2)[nH]1 [Compound 29]	861	5.32	1000	139	–	–	–	–
CC[C@H](C)[C@H](NC(=O)OC)C(=O)N1CCC[C@H]1c1ncc(-c2ccc(-c3ccc(-c4cnc([C@@H]5C[Si](C)(C)CN5C(=O)[C@@H](NC(=O)OC)[C@@H](C)CC)[nH]4)cc3)cc2)[nH]1 [Compound 30]	–	–	–	–	248	1.33	610	7.63
COC(=O)N[C@H](C(=O)N1CCC[C@H]1c1ncc(-c2ccc(-c3ccc(-c4cnc([C@@H]5C[Si](C)(C)CN5C(=O)[C@@H](NC(=O)OC)C5CCCCC5)[nH]4)cc3)cc2)[nH]1)C1CCCCC1 [Compound 34]	648	2.5	> 1000	0.04	–	–	–	–
COC(=O)N[C@H](C(=O)N1CCC[C@H]1c1nc(Cl)c(-c2ccc(-c3ccc(-c4[nH]c([C@@H]5C[Si](C)(C)CN5C(=O)[C@@H](NC(=O)OC)C(C)C)nc4Cl)cc3)cc2)[nH]1)C(C)C [Compound 41]	100	0.26	189	217	–	–	–	–
COC(=O)N[C@H](C(=O)N1C[Si](C)(C)C[C@H]1c1nc(Cl)c(-c2ccc(-c3ccc(-c4[nH]c([C@@H]5C[C@H]6C[C@H]6N5C(=O)[C@@H](NC(=O)OC)C(C)C)nc4F)cc3)cc2)[nH]1)C(C)C [Compound 45]	66	0.13	144	0.017	–	–	–	–
COC(=O)N[C@@H](C)C(=O)N1C[Si](C)(C)C[C@H]1c1nc(Cl)c(-c2ccc(-c3ccc(-c4[nH]c([C@@H]5C[C@H]6C[C@H]6N5C(=O)[C@H](C)NC(=O)OC)nc4Cl)cc3)cc2)[nH]1 [Compound 52]	57	0.021	9.5	0.007	–	–	–	–
COC(=O)N[C@H](C(=O)N1C[Si](C)(C)C[C@H]1c1nc(Cl)c(-c2ccc(-c3ccc(-c4[nH]c([C@@H]5C[C@H]6C[C@H]6N5C(=O)[C@@H](NC(=O)OC)C5CC5)nc4Cl)cc3)cc2)[nH]1)C1CC1 [Compound 53]	11.3	0.01	26.8	0.01	–	–	–	–
CCN(CC)[C@@H](C(=O)N1C[Si](C)(C)C[C@H]1c1nc(Cl)c(-c2ccc(-c3ccc(-c4[nH]c([C@@H]5C[C@H]6C[C@H]6N5C(=O)[C@@H](c5ccccc5)N(CC)CC)nc4Cl)cc3)cc2)[nH]1)c1ccccc1 [Compound 55]	0.16	0.047	16.4	0.019	–	–	–	–
COC(=O)N[C@H](C(=O)N1C[C@H](F)C[C@H]1c1ncc(-c2ccc(C#Cc3ccc(-c4cnc([C@@H]5C[Si](C)(C)CN5C(=O)[C@@H](NC(=O)OC)C(C)C)[nH]4)cc3)cc2)[nH]1)C(C)C [Compound 58]	> 100	> 1	> 100	0.03	–	–	–	–
COC(=O)N[C@H](C(=O)N1C[C@H](F)C[C@H]1c1ncc(-c2ccc(C#Cc3ccc(-c4cnc([C@@H]5C[Si](C)(C)CN5C(=O)[C@@H](NC(=O)OC)C(C)OC)[nH]4)cc3)cc2)[nH]1)C(C)C (some centres unmarked) [Compound 59]	> 100	> 1	> 100	0.02	–	–	–	–
COC(=O)N[C@H](C(=O)N1C[Si](C)(C)C[C@H]1c1ncc(-c2ccc(-c3ccc(-c4ncc([C@@H]5C[C@H]6C[C@H]6N5C(=O)[C@@H](NC(=O)OC)C(C)C)[nH]4)cc3)cc2)[nH]1)C(C)C [Compound 69]	371	0.84	> 100	0.019	–	–	–	–
CCS(=O)(=O)N1CCC(NC(=O)c2ccc(-c3ccc(-c4cnc([C@@H]5C[Si](C)(C)CN5C(=O)[C@@H](NC(=O)OC)C(C)C)[nH]4)cc3)cc2)CC1 [Compound 75]	> 1000	159	> 1000	0.028	–	–	–	–
COC(=O)N[C@H](C(=O)N1CCC[C@H]1C(=O)Nc1n[nH]c2ccc(-c3ccc(-c4cnc([C@@H]5C[Si](C)(C)CN5C(=O)[C@@H](NC(=O)OC)C(C)C)[nH]4)cc3)cc12)C(C)C [Compound 79]	> 100	> 1	> 100	> 1	–	–	–	–
